Test system: pig oocyte ZP
Test: Landscape phage library selection on pig oocytes with intact zona pellucida, after negative selection on cat, dog and cow oocytes
Format: binding
Conditions: 9-mer peptides displayed on landscape phage
Protocol: Using a strategy similar to the strategy of Example 2, 9-mer peptides that bind specifically to pig oocyte ZP were identified using a landscape phage library. In this library, foreign (non-phage) 9-mer peptides are expressed in each pVIII copy over the phage surface resulting in thousands of peptide copies per phage particle. […] Prior to phage display library selection on pig oocytes, negative selection steps on cat, dog and cow oocytes were performed. Sequences of the identified peptides are DPGLSLGDD (SEQ ID NO:41); AYNLGEGDT (SEQ ID NO:42); GQQGLNGDS (SEQ ID NO:43); DVGGGTGTE (SEQ ID NO:44); GPNSSDADS (SEQ ID NO:45); and GEGGYGSHD (SEQ ID NO:46).

Sequence | binding to pig ZP
AYNLGEGDT (Phage library random peptide insert) [SEQ ID NO:42] | specifically recognize and bind to pig ZP
DPGLSLGDD (Phage library random peptide insert) [SEQ ID NO:41] | specifically recognize and bind to pig ZP
DVGGGTGTE (Phage library random peptide insert) [SEQ ID NO:44] | specifically recognize and bind to pig ZP
GEGGYGSHD (Phage library random peptide insert) [SEQ ID NO:46] | specifically recognize and bind to pig ZP
GPNSSDADS (Phage library random peptide insert) [SEQ ID NO:45] | specifically recognize and bind to pig ZP
GQQGLNGDS (Phage library random peptide insert) [SEQ ID NO:43] | specifically recognize and bind to pig ZP

Test system: cat oocyte ZP
Test: Landscape phage library selection on cat oocytes with intact zona pellucida
Format: binding
Conditions: 9-mer peptides displayed on landscape phage
Source text: Using a strategy similar to the strategy of Examples 2, 5, and 7, 9-mer peptides that bind to cat oocyte ZP were identified using a landscape phage library. In this library, foreign (non-phage) 9-mer peptides are expressed in each pVIII copy over the phage surface resulting in thousands of peptide copies per phage particle. […] Sequences of the identified peptides are AGSSYTQDS (SEQ ID NO:53); EVNGGSADS (SEQ ID NO:54); EAYPGLDWD (SEQ ID NO:55); and VKSEDPSLN (SEQ ID NO:56).

Sequence | binding to cat ZP
AGSSYTQDS (Phage library random peptide insert) [SEQ ID NO:53] | specifically recognize and bind to cat ZP
EAYPGLDWD (Phage library random peptide insert) [SEQ ID NO:55] | specifically recognize and bind to cat ZP
EVNGGSADS (Phage library random peptide insert) [SEQ ID NO:54] | specifically recognize and bind to cat ZP
VKSEDPSLN (Phage library random peptide insert) [SEQ ID NO:56] | specifically recognize and bind to cat ZP

Test system: dog oocyte ZP
Test: Landscape phage library selection on dog oocytes with intact zona pellucida
Format: binding
Conditions: 9-mer peptides displayed on landscape phage
Source text: Using a strategy similar to the strategy of Examples 2 and 5, 9-mer peptides that bind to dog oocyte ZP were identified using a landscape phage library. In this library, foreign (non-phage) 9-mer peptides are expressed in each pVIII copy over the phage surface resulting in thousands of peptide copies per phage particle. […] Sequences of the identified peptides are DDLNSFVND (SEQ ID NO:47); ADLAAFYDD (SEQ ID NO:48); EPGGMVGSD (SEQ ID NO:49); DGVYLVGDD (SEQ ID NO:50); DWSGQDVEN (SEQ ID NO:51); and GMVGSGYDS (SEQ ID NO:52).

Sequence | binding to dog ZP
ADLAAFYDD (Phage library random peptide insert) [SEQ ID NO:48] | specifically recognize and bind to dog ZP
DDLNSFVND (Phage library random peptide insert) [SEQ ID NO:47] | specifically recognize and bind to dog ZP
DGVYLVGDD (Phage library random peptide insert) [SEQ ID NO:50] | specifically recognize and bind to dog ZP
DWSGQDVEN (Phage library random peptide insert) [SEQ ID NO:51] | specifically recognize and bind to dog ZP
EPGGMVGSD (Phage library random peptide insert) [SEQ ID NO:49] | specifically recognize and bind to dog ZP
GMVGSGYDS (Phage library random peptide insert) [SEQ ID NO:52] | specifically recognize and bind to dog ZP
